According to ChEMBL document CHEMBL3886554, “Ring-fused bicyclic pyridyl derivatives as FGFR4 inhibitors” (2016):
pIC50: −log10 of the molar value.

Biological target: Fibroblast growth factor receptor 4 (Homo sapiens, UniProt P22455)
Assay: Biochemical Kinase Assay: Liquid handling and incubation steps were done on an Innovadyne Nanodrop Express equipped with a robotic arm (Thermo CatX, Caliper Twister II) and an incubator (Liconic STX40, Thermo Cytomat 2C450). The assay plates were prepared by addition of 50 nl per well of compound solution in 90% DMSO. The kinase reactions were started by stepwise addition of 4.5 ul per well of …

Fibroblast growth factor receptor 4, sequence (P22455 whole entry): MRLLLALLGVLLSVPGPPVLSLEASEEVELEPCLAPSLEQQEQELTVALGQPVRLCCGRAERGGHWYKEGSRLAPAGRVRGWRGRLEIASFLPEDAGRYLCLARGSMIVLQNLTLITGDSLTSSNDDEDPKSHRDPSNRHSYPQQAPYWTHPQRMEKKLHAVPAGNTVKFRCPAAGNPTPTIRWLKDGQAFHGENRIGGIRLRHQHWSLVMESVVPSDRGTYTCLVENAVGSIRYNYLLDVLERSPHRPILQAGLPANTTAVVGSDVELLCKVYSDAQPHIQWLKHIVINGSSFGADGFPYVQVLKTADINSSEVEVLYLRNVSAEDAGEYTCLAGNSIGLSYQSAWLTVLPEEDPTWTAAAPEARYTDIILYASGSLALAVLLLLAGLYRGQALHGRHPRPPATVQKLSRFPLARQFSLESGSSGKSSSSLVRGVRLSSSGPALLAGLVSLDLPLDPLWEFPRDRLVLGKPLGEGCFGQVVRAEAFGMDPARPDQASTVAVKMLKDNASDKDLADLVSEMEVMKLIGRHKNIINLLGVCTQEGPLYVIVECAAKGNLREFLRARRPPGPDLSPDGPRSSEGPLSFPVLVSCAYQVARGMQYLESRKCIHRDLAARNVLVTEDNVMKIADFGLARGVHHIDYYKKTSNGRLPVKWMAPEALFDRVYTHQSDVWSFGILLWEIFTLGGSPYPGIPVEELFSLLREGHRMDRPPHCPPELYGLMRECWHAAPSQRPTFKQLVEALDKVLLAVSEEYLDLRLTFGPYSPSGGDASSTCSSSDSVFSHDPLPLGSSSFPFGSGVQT

CC(C)Oc1cc(NC(=O)N2CCCc3cc(CN(C)C(=O)CO)c(C=O)nc32)ncc1C#N
pIC50: 9.52
